Measurements: patent US20250081966A1, “HERBICIDE COMBINATIONS” (UPL CORPORATION LIMITED, priority 2021, published 2025)

Key:
Assay type in all cases: in vivo
[1] = test system: Lolium multiflorum Lam. (Italian ryegrass, LOLMU); assay: Weed control of LOLMU in wheat crop, pre-emergence spray (Example 2); conditions: 450 g/L
Procedure: (§1) Experiments were conducted to assess the efficacy of herbicidal combination comprising napropamide/napropamide-M to control a weed, Lolium multiflorum Lam. (Italian ryegrass, LOLMU) in wheat crop. The weed is resistant to control by conventional herbicides. Percentage efficacy of the herbicidal combination was determined over time (measured as days after anthesis, [DAA]) following application of the herbicidal combination comprising napropamide/napropamide-M and propisochlor. The herbicide combination was applied by spraying to LOLMU at pre-emergence stage.

[2] = test system: Lolium multiflorum Lam. (Italian ryegrass, LOLMU); assay: Weight of the weed in wheat crop (Example 2); conditions: for % Decrease in weight of weed: versus untreated control
Procedure: as §1
Further, the effect of the herbicidal combination was also assessed for the weight of the weed in wheat crop and the results has been disclosed in Table 3.

LOLMU (S-strain) = assay: Efficacy of pre-emergence spray against resistant weed LOLMU (Example 1); conditions: sprayed at pre-emergence stage
Procedure: Experiments were conducted to assess the efficacy of herbicidal combination comprising napropamide/napropamide-M to control a weed (LOLMU) which is resistant to control by conventional herbicides. Percentage efficacy of the herbicidal combination was determined over time (measured as days after anthesis, [DAA]) following application the of herbicidal combination comprising napropamide/napropamide-M and prosulfocarb. The herbicidal combination was applied by spraying to LOLMU (S-strain) at pre-emergence stage.

## CCN(CC)C(=O)C(C)Oc1cccc2ccccc12 (stereo not drawn) [Napropamid, N,N-diethyl-2-(α-naphthoxy) propionamide]
[1]; dose 750 g/Ha
  Weed control (%) 15 DAA: 65%
  Weed control (%) 25 DAA: 83%
  Weed control (%) 45 DAA: 79%
[1]; dose 1000 g/Ha
  Weed control (%) 15 DAA: 72%
  Weed control (%) 25 DAA: 86%
  Weed control (%) 45 DAA: 82%
[2]; 450 g/L, dose 750 g/Ha
  Weight of weed (g/m^2): 2.11 g/m^2
  % Decrease in weight of weed: 27%
[2]; 450 g/L, dose 1000 g/Ha
  Weight of weed (g/m^2): 1.86 g/m^2
  % Decrease in weight of weed: 36%

## CCN(CC)C(=O)[C@@H](C)Oc1cccc2ccccc12 [Napropamide-M 450 g/L, Napropamide-M]
LOLMU (S-strain); dose 315 g/Ha
  Control in weed (%): 69.80%

## CCc1cccc(C)c1N(COC(C)C)C(=O)CCl [Propisochlor, propisochlor]
[2]; 720 g/L, dose 800 g/Ha
  Weight of weed (g/m^2): 760 g/m^2
  % Decrease in weight of weed: 74%

## CCCN(CCC)C(=O)SCc1ccccc1 [Prosulfocarb 800 g/L, prosulfocarb]
LOLMU (S-strain); dose 2400 g/Ha
  Control in weed (%): 68.14%
LOLMU (S-strain); dose 5000 g/Ha
  Control in weed (%): 78.02%
